Values quoted from earlier work in patent publication US7723528B2, “Sulfur transfer reagents for oligonucleotide synthesis” (AM Chemicals LLC, priority 2008, dated 2010).

Conditions: background statement

Row | SMILES | Hydrolytic stability
1 | O=C1SS(=O)(=O)c2ccccc21 [Beaucage reagent, 3H-1,2-benzodithiol-3-one-1,1-dioxide] | rather low
2 | CCOc1nc(=O)ss1 [EDITH, 3-ethoxy-1,2,4-dithiazoline-5-one] | rather low
